Test results as given in patent US12728116B2, “Methods of treating multiple sclerosis” (Vanda Pharmaceuticals Inc., priority 2021, dated 2026).
Several values for one entry are separate records, joined by “and”; a condition that tells them apart may be missing. Equal values may be shown once.

Key:
[1] = tested on: adult subjects with relapsing MS; assay: Time to first 12-week / 24-week confirmed disability accumulation (CDA) on EDSS; type: in vivo, human; conditions: for Subjects with a 12-week CDA up to EOS / Subjects with a 24-week CDA up to EOS: ponesimod 20 mg, teriflunomide 14 mg
Description: (§1) Secondary efficacy variables and testing strategy: Four secondary efficacy endpoints were analyzed as per the statistical testing strategy outlined in FIG. 1. • Change from baseline to Week 108 in fatigue-related symptoms as measured by the symptoms domain of the FSIQ-RMS patient-reported outcome [Fatigue] • Cumulative number of combined unique active lesions from baseline to Week 108 on brain MRI [CUALs] • Time to first 12-week confirmed disability accumulation (CDA) from baseline to EOS on Expanded Disability Status Scale (EDSS) [12-week CDA] • Time to first 24-week CDA from baseline to EOS on EDSS [24-week CDA]
A 12-week CDA is an increase of at least 1.5 in EDSS for subjects with a baseline EDSS score of 0.0 or an increase of at least 1.0 in EDSS for subjects with a baseline EDSS score of 1.0 to 5.0, or an increase of at least 0.5 in EDSS for subjects with a baseline EDSS score≥5.5 which is to be confirmed after 12 weeks.
All EDSS measurements (with or without relapse, at a scheduled or unscheduled visit) were used to determine the onset of disability accumulation. However, EDSS scores used for confirmation of disability accumulation were obtained at a scheduled visit (i.e., unscheduled visits cannot be used as confirmatory visits) outside any ongoing relapse. In this context, relapse duration is defined as period between start and end dates if available and limited to 90 days from onset if end date is not available or duration is longer than 90 days.
In order to confirm that the EDSS increase is persistent, all EDSS measurements between the onset and the 12-week EDSS confirmation (minus 7-day visit time-window) need to show an increase in EDSS, meeting the criteria for accumulation of disability as defined above.
A 24-week CDA is an increase of at least 1.5 in EDSS for subjects with a baseline EDSS score of 0.0 or an increase of at least 1.0 in EDSS for subjects with a baseline EDSS score of 1.0 to 5.0, or an increase of at least 0.5 in EDSS for subjects with a baseline EDSS score≥5.5 which is to be confirmed after 24 weeks.
In order to confirm that the EDSS increase is persistent, all EDSS measurements between the onset and the 24-week EDSS confirmation (minus 7-day visit time-window) need to show an increase in EDSS, meeting the criteria for accumulation of disability as defined above.

[2] = tested on: Patients (18-55 years) with RMS; assay: Prespecified MRI-based endpoints and NEDA-3 status; type: in vivo, human
Description: Patients (18-55 years) with RMS (expanded disability status scale scores: 0-5.5) were randomized (1:1) to receive ponesimod (PON) 20 mg or teriflunomide (TER) 14 mg for 108 weeks. MRI assessments were: volume of T2 lesions; mean number of new gadolinium-enhancing (Gd+) T1 lesions and new/enlarging T2 lesions; and absence of active MRI lesions at week 108. NEDA-3 status (absence of confirmed relapse, Gd+T1 lesions and new/enlarging T2 lesions on annual MRIs, and 12-week confirmed disability accumulation) was evaluated from baseline to week 108.

[3] = tested on: adult subjects with relapsing MS; assay: Premature treatment discontinuation; type: in vivo; conditions: for Subjects discontinued due to AEs or tolerability related reasons: ponesimod 20 mg, teriflunomide 14 mg
Description: A total of 1468 subjects were screened. Of those, 1133 subjects were randomized (567 to ponesimod 20 mg and 566 to teriflunomide 14 mg) across 162 sites in 28 countries, and 1131 subjects received at least one dose of study drug. The disposition of subjects is summarized in Table 1 and a summary of reasons (primary reason) for treatment discontinuation are shown in Table 2. Overall treatment and study discontinuation were balanced across both treatment arms. A total of 6.5% and 2.5% of the subjects discontinued due to AEs or tolerability related reasons in ponesimod 20 mg and teriflunomide 14 mg, respectively, while 1.9% and 4.3% discontinued due to efficacy related reasons. There were 2 deaths reported during the study—both on teriflunomide 14 mg.

[4] = tested on: adult subjects with relapsing MS; assay: Combined unique active lesions (CUAL) on brain MRI from baseline to Week 108; type: in vivo, human; conditions: for CUAL mean estimate (Lesions per year), negative binomial regression: ponesimod 20 mg, teriflunomide 14 mg; for Total number of lesions (CUAL): total time 1072 / 1067 years; for Raw mean lesions/year (CUAL): baseline to week 108
Description: as §1
CUAL are new Gd+T1 lesions plus new or enlarging T2 lesions (without double-counting of lesions).
MRI scans were performed at Visits 2 (Baseline). 10 (Week 60), and 14 (EOT) and at any unscheduled visit (U1, U2, etc.). If applicable, MRI scans also were performed at the corresponding visits in the PTOP (Visits 10A and 14A). Testing at all visits were performed up to 7 days prior to or after the visit date.
T1-weighted imaging before and after i.v. administration of 0.1 mmol/kg body weight (=0.2 mL/kg) of Gd as well as PD-T2-weighted imaging was performed. Gd may cause nausea and vomiting and in very rare cases allergic reactions that could require immediate anti-anaphylactic therapy (such as steroids, epinephrine/adrenaline, etc.).
ARR differences and mean number of CUALs were examined using a negative binomial regression model with adjusting for the log time in the study (in years) as an offset.

[5] = tested on: adult subjects with relapsing MS; assay: 12-lead ECG heart rate and first-dose effects on Day 1; type: in vivo, human; conditions: for Mean heart rate change compared to pre-dose at 2-hours post dose / Subjects with asymptomatic post-dose HR≤40 bpm: Day 1; for Mean heart rate change compared to pre-dose at 2-hours post dose: 12-lead ECG, Safety Set; for Subjects with asymptomatic post-dose HR≤40 bpm: all with pre-treatment HR <55 bpm
Description: As per up-titration regimen, the dose of ponesimod on Day 1 is 2 mg.

[6] = ponesimod 20 mg vs teriflunomide 14 mg, not statistically significant
[7] = baseline to Week 108, Full Analysis Set

| SMILES | Subjects with a 12-week CDA up to EOS [1] [%] | Subjects with a 24-week CDA up to EOS ([1]; exploratory) [%] | Patients who achieved NEDA-3 ([2]; At week 108) [%] | Mean number of new Gd+T1 lesions per scan ([2]; baseline to week 108) | Mean numbers of new/enlarging T2 lesions per year ([2]; baseline to week 108) | Premature discontinuation: Physician decision, Adverse event, % ([3]; Safety Set) | Premature discontinuation: Subject decision, Tolerability related, % ([3]; Safety Set) | Subjects discontinued due to AEs or tolerability related reasons [3] [%] | CUAL mean estimate (Lesions per year), negative binomial regression [4, 7] [Lesions per year] | Total number of lesions (CUAL) ([4]; baseline to Week 108) | Raw mean lesions/year (CUAL) [4] [lesions/year] | Mean heart rate change compared to pre-dose at 2-hours post dose [5] [bpm] | Subjects with asymptomatic post-dose HR≤40 bpm [5] | other results |
| --- | --- | --- | --- | --- | --- | --- | --- | --- | --- | --- | --- | --- | --- | --- |
| CCC/N=C1\S/C(=C\c2ccc(OC[C@H](O)CO)c(Cl)c2)C(=O)N1c1ccccc1C [Ponesimod, (R)-5-[3-chloro-4-(2,3-dihydroxy-propoxy)-benz[Z]ylidene]-2-([Z]-propylimino)-3-o-tolyl-thiazolidin-4-one] | 10.1 | 8.1 | 28.2 | 0.18 | 1.40 | (5.1) % | (1.4) % | 6.5 | 1.405 | 1671 | 1.559 | −8.7 | 3 | Time to first 24-week CDA, hazard ratio ponesimod vs teriflunomide ([1]; Full Analysis Set, exploratory): 0.84; Time to first 12-week CDA, hazard ratio ponesimod vs teriflunomide ([1]; Full Analysis Set, stratified Cox regression): 0.83; Reduction of risk of 12-week CDA compared to teriflunomide [1, 6]: 17%; Reduction of risk of 24-week CDA compared to teriflunomide [1, 6]: 16%; Odds ratio for achieving NEDA-3, PON vs TER ([2]; At week 108): 1.70; Rate ratio, new Gd+T1 lesions per scan, PON vs TER ([2]; baseline to week 108): 0.42; Rate ratio, new/enlarging T2 lesions per year, PON vs TER ([2]; baseline to week 108): 0.44; Least square (LS) mean difference (PON-TER) in change from baseline in total volume of T2 lesions ([2]; baseline to week 108, PON 20 mg vs TER 14 mg): −399.2 mm^3; PON vs TER odds ratio for absence of new Gd+T1 lesions ([2]; week 108): 2.18; PON vs TER odds ratio for absence of new/enlarging 12 lesions ([2]; week 108): 1.71; CUAL treatment effect (Rate Ratio), ponesimod vs. teriflunomide [4, 7]: 0.44 and 0.444; CUALs, benefit compared with teriflunomide in subgroups ([4]; patients with EDSS≤3 and treatment-naïve patients): benefited from ponesimod compared with teriflunomide; Reduction of number of CUALs between baseline and week 108 compared to teriflunomide ([4]; ponesimod 20 mg vs teriflunomide 14 mg): 56%; 2nd or higher degree AV block ([5]; Day 1, first dose): No 2nd or higher degree AV block was observed; Subjects meeting discharge criteria at 4 hours post-dose ([5]; Day 1, first dose): ca. 99%; ECG HR effect: time of nadir post-dose ([5]; Day 1, ponesimod 2 mg): 2 h |
| C/C(O)=C(\C#N)C(=O)Nc1ccc(C(F)(F)F)cc1 [Teriflunomide, reference compound] | 12.4 | 9.9 | 18.3 | 0.43 | 3.16 | (1.6) % | (0.9) % | 2.5 | 3.164 | 3714 | 3.481 | −1.7 | none | Premature discontinuation: Death, % ([3]; Safety Set): (0.4) % |
